Tests used:
[1] = no reference given; cited from earlier work
dog RPTECs = experiment: GSH-Glo glutathione assay; assay type: cell-based; conditions: ~48 h, high concentrations
Protocol: (§1) Frozen RPTECs vials were removed from liquid nitrogen storage and placed in a 37 °C water bath until the contents were completely thawed. The cells were gently resuspended and dispensed into a cell culture flask at a seeding density of ∼7500 cells/cm^2. The flask was placed in a 37 °C, 5% CO2 incubator. Cell cultures were given fresh medium the following morning and then every other day until the cell culture was approximately 90% confluent. When the cell culture was 90% confluent, medium was removed and the cells were rinsed with warmed PBS. Cells were harvested and split into new flasks based on a cell density of 7500 cells/cm^2. Cells were incubated at 37 °C for 3 days, with fresh medium added each day. Cells were harvested and diluted with growth medium to a density of 200,000 cells/mL. 100 μL of cell suspension per well (20,000 cells/well) was added to a clear-bottom 96-well microplate for luminescence assays. The plated cells were incubated in the 37 °C incubator for 3 days.
(§2) Each test compound (PG, GA, 4OMPG and 4OMGA) was initially reconstituted using DMSO at a concentration of 250 mg/mL. Serial dilutions of each compound were performed to reach concentrations of 4000 μM, 2000 μM, 1000 μM, 500 μM, 250 μM, 125 μM, 62.5 μM, 31.3 μM using warmed fresh supplemented medium with 0.4% (v/v) DMSO for all concentration levels. 100 μL of media containing the compound solution was added to the cells. Final concentrations of the compounds were 2000 μM, 1000 μM, 500 μM, 250 μM, 125 μM, 62.5 μM, 31.3 μM, 15.7 μM. AZ13599185 (tubulysin, 100 or 500 ng/mL) or cisplatin (30 μg/mL) and buthionine sulfoximine (BSO, 200 μM) were used as positive controls for CTG and GSH assays, respectively. 0.2% (v/v) DMSO in medium was used as the control for both assays, corrsponding to the final cocnetration of DMSO in the well. Three replicates for each compound at each concentration were prepared. Six replicates of positive or negative controls were prepared. Cells were incubated at 37 °C for approximately 48 h.
(§3) Cell media were removed and cells were washed twice with 200 μL of PBS buffer per well. CTG and GSH assay reagents were added to the wells and the assays were performed following the protocols of the Promega assay kits. Briefly, to perform the CTG assay, 100 μL of CTG solution was added into each well. The plate was gently shaken and incubated in the dark for 30 min and luminescence was measured using a PerkinElmer VICTOR X3 plate reader. To perform the GSH assay, luciferin-NT substrate and glutathione S-transferase were mixed into the GSH-GLo solution. 100 μL of the mixed solution was added into each well. The plate was gently shaken and incubated in the dark for at least 30 min. 100 μL of Luciferin Detection Reagent was added per well. The plate was gently shaken and incubated in the dark for at least 15 min. Luminescence was measured using a PerkinElmer VICTOR X3 plate reader.
(§4) For cell-based assays, data was normalized to the negative control. Cell viability and GSH level were expressed as Cell viability or GSH level=Luminescence(each well)/Luminescence(average of DMSO negative control)

human RPTECs = experiment: GSH-Glo glutathione assay; assay type: cell-based; conditions: ~48 h, high concentrations
Protocol: as §1, §2, §3, §4

[2] = Exposure comparison of PG and phase-I and phase-II metabolites in dog and human plasma; conditions: oral EC MEDI7219 tablets; samples through 8 h; human PG 800 mg (N = 8), dog PG 200 mg/kg/day (N = 6)
Protocol: Dog blood was collected via jugular vein in potassium (K2) EDTA tubes and processed to plasma. Samples were centrifuged at approximately 3000 rpm for 5 min at approximately 4 °C within 30 min of collection. Plasma samples were acidified with 1% (v/v) formic acid (FA) to avoid degradation of PG and metabolites in plasma within 20 min of the start of centrifugation and then stored frozen (≤-60 °C). Acidified plasma was extracted using internal standard-spiked solution (100 mM ammonium bicarbonate: acetonitrile = 1:4). Samples were then centrifuged to collect supernatant, followed by drying to completion. The dried samples were reconstituted with 200 uL of 0.1% (v/v) formic acid in water. Samples were vortexed and centrifuged before injection. In order to assess potential impact of hemolysis on qualification of PG and its metabolites, hemolyzed plasma was prepared by spiking fully hemolyzed whole blood at an indicated percentage into plasma.
Separations were conducted on a reversed-phase column (Phenomenex, Kinetex F5, 2.6 μm 100 Å, 100 × 4.6 mm) at a flow rate of 0.7 mL/min at 40 °C. Mobile phase A was 0.1% formic acid in water and mobile phase B was 0.1% formic acid in methanol. The samples were analyzed on a SCIEX 6500+ QTRAP under negative ESI mode. The total run time was 5.5 min. Eight calibration standards and three quality control (LQC, MQC and HQC) samples were used for quantification.
The primary metabolites of PG were measured in dog and human plasma following oral administration of EC MEDI7219 tablets to examine a potential mechanism of the PG-mediated renal toxicity in dog and its possible translatability to humans. Plasma concentrations of PG, its phase-I metabolites GA and 4OMGA and phase-II glucuronide and glutathione conjugates were measured. The human and dog samples, collected through 8 h after administration, were analyzed and the results were compared (Figure , Figure S5). Based on allometric scaling method the highest daily dose administered in humans was approximately 8-fold less compared with the dose level tested in dogs.
Human (H) data is in black. Dog (D) data is in red (study 002). Concentration (mM) is in log10 scale. Data was normalized to PG dose (mg/kg/day). N = 8 for human (PG dosed at 800 mg with MEDI7219 tablets). N = 6 for dogs (PG dosed at 200 mg/kg/day). Below LLOQ values were set to 1/2 LLOQ for the calculation.

urine NGAL = conditions: dog, in vivo
Protocol: In the first investigative 4-week study (study 002), dogs received EC tablets consisting of different combinations of the clinical formulation excipients (Table ) with or without PG once daily for 27 days. For groups receiving tablets with PG, each EC tablet contained 100 mg PG; the number of tablets administered each day (13–20 placed in size 12 gelatin capsules) was adjusted based on the most recent body weight to yield a target PG dose level of 200 mg/kg/day. Scheduled necropsies of all surviving animals were conducted on day 28 of the dosing phase. Samples for PG toxicokinetics were collected on days 1, 14, 21, and 25 of the dosing-phase. On days 1, 14, and 21 samples were collected: predose and approximately 1, 2, 3, 4, 6, 8, 12, and 24 h postdose. Days 25: predose and approximately 1, 2, 3, 4, 6, 8, 10, and 24 h postdose. […] NGAL was measured using an ELISA method and normalized to urine creatinine. Blood samples for standard clinical chemistry parameters, including creatinine and urea nitrogen, were collected from fasted dogs twice prior to the predose phase and before daily dose administration on Days 7, 14, and 21 of the dosing phase, as well as on the day of scheduled necropsy; samples were measured on a clinical chemistry analyzer using a validated method.

Row | SMILES | GSH levels at high concentrations (human RPTECs) | Plasma exposure, humans compared with dogs [2] | other results
1 | O=C(O)c1cc(O)c(O)c(O)c1 [GA, Gallic acid] | reduction of GSH levels | comparable between the two species | Log P [1]: 0.91; GSH levels at high concentrations (dog RPTECs): reduction of GSH levels
2 | O=C(O)c1cc(O)c(O)c(OC2OC(C(=O)O)C(O)C(O)C2O)c1 (centres unmarked) [GA-3-Gluc, gallic acid-3-glucoronide] |  | lower exposure | 
3 | COc1c(O)cc(C(=O)O)cc1O [Group 4OMGA, 4-O-methyl gallic acid] |  | comparable between the two species | 
4 | CCCOC(=O)c1cc(O)c(OC)c(O)c1 [Group 4OMPG, 4-O-methyl propyl gallate, reference compound] | increases of GSH |  | 
5 | C[C@H](CCC(=O)[O-])[C@H]1CC[C@H]2[C@@H]3[C@H](O)C[C@@H]4C[C@H](O)CC[C@]4(C)[C@H]3CC[C@]12C.[Na+] [NaCDC, sodium chenodeoxycholate] |  |  | Urine NGAL levels (urine NGAL): did not induce elevations in NGAL levels

From article PMC12070228, “Investigations of Enteric-Coated Tablet Propyl Gallate-Induced Nephrotoxicity in Beagles as well as Human and Dog Renal Proximal Tubule Epithelial Cells” (ACS Pharmacology & Translational Science, 2025)
